Measurements as given in patent US11111245B2, “Derivatives of N-cycloalkyl/heterocycloalkyl-4-(imidazo[1,2-a]pyridine)pyrimidin-2-amine as therapeutic agents” (Aucentra Therapeutics Pty Ltd, priority 2017, dated 2021).

Columns and labels:
CDK4/D1 = CDK4/D1 (Homo sapiens, UniProt P11802); assay: ADP Glo Kinase assay CDK4/D1; format: biochemical; conditions: CDK4D1; compound at 10 μM; read-out: residual activity (%) at 10 μM CDK4D1
In short: (§1)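 CDK4/D1 and CDK6/D3 were run in […] Tris pH 7.5, 20 mM MgCl2, 0.4 mM DTT, 0.1 mg/ml BSA with RB-CTF substrate; CDK9/T1 used RBER-IRStide. ATP-started reactions ran 40 min at 37° C, with ADP Glo luminescence read-out. IC50 came from 4-parameter fits; Ki from Km (ATP) and IC50.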

leukemia cell lines = assay: Resazurin cell viability assay on leukemia cell lines (72 h growth inhibition, GI50); format: cell-based; conditions: Homo sapiens, MV4-11 cells
In short: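 Solid tumour cells: MTT. Leukaemia cells: resazurin. GI50 fitted by non-linear regression.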

CDK9/T1 = CDK9/T1 (Homo sapiens, UniProt P50750); assay: ADP Glo Kinase assay CDK9/T1; format: biochemical; conditions: CDK9T1; read-out: CDK inhibition, Ki (μM) CDK9T1
In short: as §1

CDKs and other kinases [1] = biological target: T1, CDKs and other kinases (Homo sapiens, UniProt P24941); assay: Radiometric kinase assay (Eurofins Pharma Discovery or Reaction Biology Corporation Kinase Profiler); format: biochemical; conditions: CDK2A; for Ki: read-out: CDK inhibition, Ki (μM) CDK2A; for remaining activity at 10 µM: compound at 10 μM, read-out: residual activity (%) at 10 μM CDK2A
T1 construct: other: CDK2A; residual activity (%) at 10 μM CDK2A; compound at 10 μM
In short: (§2)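 Other CDKs and further kinases were profiled externally by radiometric assay. In-house ADP Glo assays covered CDK4/D1 and CDK6/D3 (RB-CTF substrate, pH 7.5 Tris buffer with MgCl2, DTT, BSA) and CDK9/T1 (RBER-IRStide substrate), 40 min at 37° C.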

CDKs and other kinases [2] = biological target: T2, CDKs and other kinases (Homo sapiens, UniProt P50613); assay: as above; format: biochemical; conditions: CDK7H; for Ki: read-out: CDK inhibition, Ki (μM) CDK7H; for remaining activity at 10 µM: compound at 10 μM, read-out: residual activity (%) at 10 μM CDK7H
T2 construct: other: CDK7H; residual activity (%) at 10 μM CDK7H; compound at 10 μM
In short: as §2

CDKs and other kinases [3] = biological target: T3, CDKs and other kinases (Homo sapiens, UniProt P06493); assay: as above; format: biochemical; conditions: CDK1B; for Ki: read-out: CDK inhibition, Ki (μM) CDK1B; for remaining activity at 10 µM: compound at 10 μM, read-out: residual activity (%) at 10 μM CDK1B
T3 construct: other: CDK1B; residual activity (%) at 10 μM CDK1B; compound at 10 μM
In short: as §2

CDK6/D3 = CDK6/D3 (Homo sapiens, UniProt Q00534); assay: ADP Glo Kinase assay CDK6/D3; format: biochemical; conditions: CDK6D3; compound at 10 μM; read-out: residual activity (%) at 10 μM CDK6D3
In short: as §1

T3 sequence (P06493 whole entry): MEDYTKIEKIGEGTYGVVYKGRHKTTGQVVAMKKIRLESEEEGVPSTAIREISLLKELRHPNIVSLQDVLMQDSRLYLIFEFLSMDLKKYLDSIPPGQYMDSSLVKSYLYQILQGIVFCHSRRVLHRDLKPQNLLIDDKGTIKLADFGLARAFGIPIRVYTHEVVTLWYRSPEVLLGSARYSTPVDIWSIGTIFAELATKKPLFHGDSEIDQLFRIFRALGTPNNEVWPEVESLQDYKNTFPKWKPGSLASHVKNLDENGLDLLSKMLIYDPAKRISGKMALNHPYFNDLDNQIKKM
Chain of CDK4/D1 (P11802 whole entry): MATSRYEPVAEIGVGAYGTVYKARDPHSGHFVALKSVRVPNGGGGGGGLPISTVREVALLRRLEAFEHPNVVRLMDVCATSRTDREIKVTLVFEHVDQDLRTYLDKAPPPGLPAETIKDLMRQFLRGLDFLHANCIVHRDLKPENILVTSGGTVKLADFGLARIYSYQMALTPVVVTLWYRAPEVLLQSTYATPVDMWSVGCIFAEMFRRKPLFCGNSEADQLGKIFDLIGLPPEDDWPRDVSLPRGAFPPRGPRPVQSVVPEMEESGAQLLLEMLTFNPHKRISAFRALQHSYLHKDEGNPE
Chain of CDK4/D1 (P24385 whole entry partner): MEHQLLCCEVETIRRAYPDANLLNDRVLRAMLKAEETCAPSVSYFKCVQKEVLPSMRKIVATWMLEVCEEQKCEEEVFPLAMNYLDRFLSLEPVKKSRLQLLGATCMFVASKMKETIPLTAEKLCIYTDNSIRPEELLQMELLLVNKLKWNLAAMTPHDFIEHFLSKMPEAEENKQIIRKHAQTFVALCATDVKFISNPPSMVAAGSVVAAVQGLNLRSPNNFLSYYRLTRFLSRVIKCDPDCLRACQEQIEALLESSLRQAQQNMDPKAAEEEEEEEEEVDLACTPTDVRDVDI
Chain of CDK6/D3 (Q00534 whole entry): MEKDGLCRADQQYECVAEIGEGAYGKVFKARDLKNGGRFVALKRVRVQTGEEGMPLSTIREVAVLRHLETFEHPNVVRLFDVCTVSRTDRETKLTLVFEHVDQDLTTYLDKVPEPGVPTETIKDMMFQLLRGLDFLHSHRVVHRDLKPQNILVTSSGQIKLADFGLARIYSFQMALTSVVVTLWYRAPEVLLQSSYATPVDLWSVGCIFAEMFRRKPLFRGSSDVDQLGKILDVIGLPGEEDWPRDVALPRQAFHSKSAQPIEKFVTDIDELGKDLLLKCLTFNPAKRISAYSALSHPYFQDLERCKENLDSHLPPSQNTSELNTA
Chain of CDK6/D3 (P30281 whole entry partner): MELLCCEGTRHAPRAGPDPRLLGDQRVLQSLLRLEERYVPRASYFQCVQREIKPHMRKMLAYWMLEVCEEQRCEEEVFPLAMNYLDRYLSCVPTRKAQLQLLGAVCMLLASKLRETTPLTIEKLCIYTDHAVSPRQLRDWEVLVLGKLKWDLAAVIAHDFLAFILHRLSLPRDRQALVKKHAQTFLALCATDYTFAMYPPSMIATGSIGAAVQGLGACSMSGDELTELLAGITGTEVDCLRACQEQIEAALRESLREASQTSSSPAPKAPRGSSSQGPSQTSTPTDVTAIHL
Chain of CDK9/T1 (P50750 whole entry): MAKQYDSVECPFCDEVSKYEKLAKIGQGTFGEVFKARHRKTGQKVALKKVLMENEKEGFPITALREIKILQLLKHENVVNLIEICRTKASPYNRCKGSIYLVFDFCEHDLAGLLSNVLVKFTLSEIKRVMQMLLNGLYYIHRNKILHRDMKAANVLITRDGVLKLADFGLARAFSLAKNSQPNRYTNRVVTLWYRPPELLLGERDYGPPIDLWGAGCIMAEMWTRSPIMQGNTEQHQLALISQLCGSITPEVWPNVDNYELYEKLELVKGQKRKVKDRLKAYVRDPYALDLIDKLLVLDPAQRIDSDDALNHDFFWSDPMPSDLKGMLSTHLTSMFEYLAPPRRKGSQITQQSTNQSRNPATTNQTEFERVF
Chain of CDK9/T1 (O60563 whole entry partner): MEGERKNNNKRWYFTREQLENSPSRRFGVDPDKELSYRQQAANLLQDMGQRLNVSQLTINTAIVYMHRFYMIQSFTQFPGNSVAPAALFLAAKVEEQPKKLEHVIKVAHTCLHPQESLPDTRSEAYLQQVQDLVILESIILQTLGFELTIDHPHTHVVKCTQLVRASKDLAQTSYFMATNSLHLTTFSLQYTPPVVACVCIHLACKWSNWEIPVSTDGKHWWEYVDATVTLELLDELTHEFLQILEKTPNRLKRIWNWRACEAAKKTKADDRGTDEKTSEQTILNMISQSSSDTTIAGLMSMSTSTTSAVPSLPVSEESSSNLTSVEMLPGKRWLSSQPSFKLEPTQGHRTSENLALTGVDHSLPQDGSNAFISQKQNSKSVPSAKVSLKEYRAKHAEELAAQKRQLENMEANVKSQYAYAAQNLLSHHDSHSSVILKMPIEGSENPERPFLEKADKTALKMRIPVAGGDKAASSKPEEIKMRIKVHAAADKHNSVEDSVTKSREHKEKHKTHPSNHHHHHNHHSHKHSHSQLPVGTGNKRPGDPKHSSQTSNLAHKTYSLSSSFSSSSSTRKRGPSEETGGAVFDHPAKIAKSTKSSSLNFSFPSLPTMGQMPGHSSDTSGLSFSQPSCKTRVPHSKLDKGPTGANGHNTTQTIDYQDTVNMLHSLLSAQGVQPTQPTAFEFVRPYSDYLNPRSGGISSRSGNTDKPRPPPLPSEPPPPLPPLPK
T2 sequence (P50613 whole entry): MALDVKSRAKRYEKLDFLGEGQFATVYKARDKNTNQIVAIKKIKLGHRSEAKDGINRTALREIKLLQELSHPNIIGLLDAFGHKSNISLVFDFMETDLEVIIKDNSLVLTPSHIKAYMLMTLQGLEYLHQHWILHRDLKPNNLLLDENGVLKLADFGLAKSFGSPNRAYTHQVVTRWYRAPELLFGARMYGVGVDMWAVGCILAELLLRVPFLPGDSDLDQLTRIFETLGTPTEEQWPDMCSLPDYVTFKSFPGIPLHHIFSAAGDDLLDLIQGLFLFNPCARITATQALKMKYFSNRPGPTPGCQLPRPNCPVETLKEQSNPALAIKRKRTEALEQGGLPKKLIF

| Structure (SMILES) | remaining activity at 10 µM (CDK4/D1) [%] | GI50 (leukemia cell lines) [µM] | Ki (CDK9/T1) [µM] | Ki (CDKs and other kinases [1]) [µM] | Ki (CDKs and other kinases [2]) [µM] | Ki (CDKs and other kinases [3]) [µM] | remaining activity at 10 µM (CDK6/D3) [%] | remaining activity at 10 µM (CDKs and other kinases [1]) [%] | remaining activity at 10 µM (CDKs and other kinases [2]) [%] | remaining activity at 10 µM (CDKs and other kinases [3]) [%] |
| --- | --- | --- | --- | --- | --- | --- | --- | --- | --- | --- |
| N[C@H]1CC[C@H](Nc2ncc(Cl)c(-c3cnc4ccc(NCc5ccc(F)cc5)cn34)n2)CC1 [Compound 41, (1r,4r)-N^1-(5-Chloro-4-(6-((4-fluorobenzyl)amino)imidazo[1,2-a]pyridin-3-yl)pyrimidin-2-yl)cyclohexane-1,4-diamine] | 40 | 0.013 ± 0.002 | 0.045 | 0.059 | 0.958 | 2.66 | 55 | – | – | – |
| N[C@H]1CC[C@H](Nc2ncc(Cl)c(-c3cnc4ccccn34)n2)CC1 [Compound 42, (1r,4r)-N^1-(5-chloro-4-(imidazo[1,2-a]pyridin-3-yl)pyrimidin-2-yl)cyclohexane-1,4-diamine] | 0 | 0.007 ± 0.001 | 0.061 | 0.046 | 0.024 | 0.46 | 45 | – | – | – |
| N[C@H]1CC[C@H](Nc2ncc(F)c(-c3cnc4cc(Cl)ccn34)n2)CC1 [Compound 43, (1r,4r)-N^1-(4-(7-Chloroimidazo[1,2-a]pyridin-3-yl)-5-fluoropyrimidin-2-yl)cyclohexane-1,4-diamine] | 0 | 0.004 ± 0.001 | 0.008 | – | – | – | 2 | 1 | 3 | 4 |
| N[C@H]1CC[C@H](Nc2ncc(F)c(-c3cnc4cc(-c5ccccc5)ccn34)n2)CC1 [Compound 44, (1r,4r)-N^1-(5-Fluoro-4-(7-phenylimidazo[1,2-a]pyridin-3-yl)pyrimidin-2-yl)cyclohexane-1,4-diamine] | 2 | < 0.001 | 0.007 | – | – | – | 1 | 0 | 2 | 0 |
| N[C@H]1CC[C@H](Nc2ncc(F)c(-c3cnc4cc(-c5cccnc5)ccn34)n2)CC1 [Compound 45, (1r,4r)-N^1-(5-Fluoro-4-(7-(pyridin-3-yl)imidazo[1,2-a]pyridin-3-yl)pyrimidin-2-yl)cyclohexane-1,4-diamine] | 5 | < 0.001 | 0.006 | – | – | – | 0 | 0 | 2 | 0 |
| N[C@H]1CC[C@H](Nc2ncc(F)c(-c3cnc4cc(Nc5cccnc5)ccn34)n2)CC1 [Compound 46, (1r,4r)-N^1-(5-Fluoro-4-(7-(pyridin-3-ylamino)imidazo [1,2-a]pyridin-3-yl)pyrimidin-2-yl)cyclohexane-1,4-diamine] | 0 | < 0.001 | 0.004 | – | – | – | 1 | 0 | 3 | 0 |
| N[C@H]1CC[C@H](Nc2ncc(F)c(-c3cnc4ccc(-c5ccc(CN6CCOCC6)cc5)cn34)n2)CC1 [Compound 47, (1r,4r)-N^1-(5-Fluoro-4-(6-(4-(morpholinomethyl)phenyl)imidazo[1,2-a]pyridin-3-yl)pyrimidin-2-yl)cyclohexane-1,4-diamine] | 4 | 0.003 ± 0.001 | 0.004 | – | 0.075 | – | 16 | 2 | – | 5 |
| CN(C)S(=O)(=O)c1ccc(-c2ccc3ncc(-c4nc(N[C@H]5CC[C@H](N)CC5)ncc4F)n3c2)cc1 [Compound 48, 4-(3-(2-(((1r,4r)-4-Aminocyclohexyl)amino)-5-fluoropyrimidin-4-yl)imidazo[1,2-a]pyridin-6-yl)-N,N-dimethylbenzenesulfonamide] | 4 | 0.002 | 0.004 | – | – | – | 45 | 3 | 8 | 13 |
| N[C@H]1CC[C@H](Nc2ncc(F)c(-c3cnc4ccc(NC(=O)c5ccc(F)cc5)cn34)n2)CC1 [Compound 51, N-(3-(2-(((1r,4r)-4-Aminocyclohexyl)amino)-5-fluoropyrimidin-4-yl)imidazo[1,2-a]pyridin-6-yl)-4-fluorobenzamide] | 0 | 0.001 | 0.006 | – | – | – | 22 | 4 | 6 | 4 |

Continued, values first:

| remaining activity at 10 µM (CDK4/D1) [%] | GI50 (leukemia cell lines) [µM] | Ki (CDK9/T1) [µM] | Ki (CDKs and other kinases [1]) [µM] | Ki (CDKs and other kinases [2]) [µM] | Ki (CDKs and other kinases [3]) [µM] | remaining activity at 10 µM (CDK6/D3) [%] | remaining activity at 10 µM (CDKs and other kinases [1]) [%] | remaining activity at 10 µM (CDKs and other kinases [2]) [%] | remaining activity at 10 µM (CDKs and other kinases [3]) [%] | Structure (SMILES) |
| --- | --- | --- | --- | --- | --- | --- | --- | --- | --- | --- |
| 4 | 0.008 ± 0.003 | 0.013 | – | – | – | 21 | 7 | 6 | 6 | N[C@H]1CC[C@H](Nc2ncc(F)c(-c3cnc4ccc(NC(=O)Cc5ccccc5)cn34)n2)CC1 [Compound 52, N-(3-(2-(((1r,4r)-4-Aminocyclohexyl)amino)-5-fluoropyrimidin-4-yl)imidazo[1,2-a]pyridin-6-yl)-2-phenylacetamide] |
| 0 | 0.002 ± 0.001 | 0.049 | – | – | – | 0 | 3 | 5 | 18 | Cc1cnc(N[C@H]2CC[C@H](N)CC2)nc1-c1cnc2cc(-c3ccccc3)ccn12 [Compound 53, (1r,4r)-N^1-(5-Methyl-4-(7-phenylimidazo[1,2-a]pyridin-3-yl)pyrimidin-2-yl)cyclohexane-1,4-diamine] |
| 0 | 0.018 ± 0.004 | 0.11 | – | – | – | 0 | 5 | 6 | 29 | Cc1cnc(N[C@H]2CC[C@H](N)CC2)nc1-c1cnc2cc(-c3cccnc3)ccn12 [Compound 54, (1r,4r)-N^1-(5-Methyl-4-(7-(pyridin-3-yl)imidazo[1,2-a]pyridin-3-yl)pyrimidin-2-yl)cyclohexane-1,4-diamine] |
| 5 | 0.558 ± 0.13 | 0.069 | – | – | – | 2 | 5 | 8 | 24 | Cc1cnc(N[C@H]2CC[C@H](N)CC2)nc1-c1cnc2cc(Nc3cccnc3)ccn12 [Compound 55, (1r,4r)-N^1-(5-Methyl-4-(7-(pyridin-3-ylamino)imidazo [1,2-a]pyridin-3-yl)pyrimidin-2-yl)cyclohexane-1,4-diamine] |
| 45 | 0.067 ± 0.014 | 0.069 | – | – | – | 39 | 31 | 17 | 47 | COc1cccc(-c2ccc3ncc(-c4nc(N[C@H]5CC[C@H](N)CC5)ncc4C)n3c2)c1 [Compound 57, (1r,4r)-N^1-(4-(6-(3-Methoxyphenyl)imidazo[1,2-a]pyridin-3-yl)-5-methylpyrimidin-2-yl)cyclohexane-1,4-diamine] |
| 69 | 0.177 ± 0.005 | 0.17 | – | – | – | 86 | 70 | 22 | 71 | COc1ccc(-c2ccc3ncc(-c4nc(N[C@H]5CC[C@H](N)CC5)ncc4C)n3c2)cn1 [Compound 58, (1r,4r)-N^1-(4-(6-(6-Methoxypyridin-3-yl)imidazo[1,2-a]pyridin-3-yl)-5-methylpyrimidin-2-yl)cyclohexane-1,4-diamine] |
